What was measured:
MDA-MB-436 cells [1] = experiment: First in-vitro cytological inhibitory activity experiment (CelltiterGlo assay); assay type: cell-based, human; details: Homo sapiens, MDA-MB-436, 168 h, Experimental Example 2, 4,000 cells/well, 7 days, read-out: In-vitro cytological activities, IC50, MDA-MB-436
Method: Experimental Example 2 First Experiment of in-vitro Cytological Inhibitory Activities of Compounds of the Present Disclosure
A cell line used in the following experiment was as follows: MDA-MB-436: human breast cancer cells.
Experimental method (CelltiterGlo assay)
All cells were adherent cells, the medium was DMEM+10% FBS+1% ITS-G+16 μg/ml glutathione, and the cells were tested in a logarithmic growth phase.
(§1) Cells in the logarithmic growth phase were collected and counted by a […]. The cell viability was detected by a trypan blue exclusion method, and the cell viability was kept over 90%. The cell concentration was adjusted to be in a proper range, and 90 μL of cell suspension was added into a 96-well plate respectively.
(§2) 2.1 DMSO stock solutions of the test compounds were prepared, and concentrations of the stock solutions of the test compounds were 10 mM respectively.
(§3) The stock solutions of the test compounds were serially diluted from 10 mM with DMSO in a 3-fold gradient for a total of 8 concentrations. Then, 2 µL of DMSO-gradient diluted compounds were respectively added into 198 µL of culture solutions to give the working stock solutions of the test compounds (a compound concentration was 10-fold higher than the final concentration, and a maximum concentration was 10 μM).
(§4) 10 μL of compound working stock solution was added into each well in the 96-well plate inoculated with cells (10-fold dilution, a final DMSO concentration was 0.1%).
Solvent control: 0.1% DMSO. […]
(§5) A CTG reagent was thawed and the 96-well plate was equilibrated to room temperature for 30 minutes, 60 μL of reagent (Celititer Glo assay kit) was added into each well, shaking was carried out for 2 minutes with a shaker (in the absence of light), and the plate was incubated at room temperature for 20 minutes (in the absence of light). Light signal values were read on a multi-functional microplate reader.
1) inhibition (%)=(DMSO solvent control well reading−test compound well reading)/(DMSO solvent control well reading−blank control well reading)×100%; […]

[2] = molecular target: T1, Recombinant Human His6-USP1/His6-UAF1 Complex Protein (Homo sapiens (Human), UniProt O94782); experiment: In-vitro enzymatic activity on USP1, first experimental method (Ub-Rho substrate, 15 min incubation); assay type: biochemical; details: incubation at room temperature 15 minutes, read-out: Inhibitory activities on USP-1, IC50
Method: Experimental Example 1 In-vitro Enzymatic Activities of Compounds of the Present Disclosure
First Experimental Method:
1) The compounds of the present disclosure were prepared to 10 mM with DMSO, and used as test stock solutions.
2) The stock solutions of the compounds of the present disclosure were diluted in a 4-fold gradient for 10 concentrations, with a maximum concentration of 10 mM.
3) The diluted compounds of the present disclosure were respectively transferred to 384-well plates (diluted by 1,000 folds) by Echo550, 2 multiple wells were set for each concentration, and a final concentration of DMSO was […].
(§6) 1) An enzyme solution was prepared in 1×test buffer.
(§7) 2) Ubiquitin Rhodamine 110 protein, CF (UB-Rho), was added into 1×determination buffer to prepare a substrate solution.
(§8) 3) 10 μL of enzyme solution and 1×reaction buffer were transferred to a 384-well plate, and
(§9) 4) incubated at room temperature for 15 minutes.
(§10) 5) 10 μL of substrate solution was added into each well to start the reaction, centrifuged for 30 seconds, and shaken for 30 seconds.
(§11) 1) Plate reading was carried out on SpectraMax Paradigm for 30 minutes, with an excitation wavelength of 480 nm and an emission wavelength of 540 nm.
2) Data on SpectraMax Paradigm were collected.
An inhibition (% inh) was calculated by the following formula:
(§12) [formula] • wherein, Max represented: a luminous signal intensity of a positive control well without adding the compound; • Min represented: a luminous signal intensity of a negative control well without adding the enzyme; and • Signal represented: a luminous signal intensity of the compound of the test sample.
IC50 was Calculated by the Following Formula:
(§13) [formula] • wherein, Y represented: % inhibition; and • X represented: the concentration of the compound.

MDA-MB-436 cells [3] = experiment: Second in-vitro cytological inhibitory activity experiment, first method (CelltiterGlo assay), MDA-MB-436; assay type: cell-based; details: Homo sapiens, MDA-MB-436, 168 h, Experimental Example 3 first method, 3,000 cells/well, 7 days, read-out: In-vitro cytological activities, IC50, MDA-MB-436
Method: (§14) Experimental Example 3 Second Experiment of in-vitro Cytological Inhibitory Activities of Compounds of the Present Disclosure
(§15) Cell lines used in the following experiment were as follows: MDA-MB-436: human breast cancer cells; and Caov-3: Human ovarian cancer cells
(§16) First Experimental Method (CelltiterGlo Assay)
(§17) All cells were adherent cells, the MDA-MB-436 cell medium was DMEM+10% FBS+1% ITS-G+16 μg/ml glutathione, the Caov-3 cell medium was DMEM+10% FBS, and cells were tested in a logarithmic growth phase.
as §1, §2
as §3, with “concentration was 100 μM).” for “concentration was 10 μM).”
as §4
(§18) Solvent control: 0.1% DMSO.
(§19) Blank control: 0 hour after dosing, the 96-well plate was detected and read.
(§20) 2.5 The 96-well plate was placed in a 5% CO2 cell incubator at 37° C. to culture for 7 days.
as §5
(§21) 1) inhibition (%)=(DMSO solvent control well reading−test compound well reading)/(DMSO solvent control well reading−blank control well reading)×100%;
(§22) 2) GraphPad Prism was input for drawing to obtain a curve and IC50.

Caov-3 cells [4] = experiment: Second in-vitro cytological inhibitory activity experiment, first method (CelltiterGlo assay), Caov-3; assay type: cell-based; details: Homo sapiens, Caov-3, 168 h, Experimental Example 3 first method, 2,000 cells/well, 7 days
Method: as §14, §15, §16, §17, §1, §2
as §3, with “concentration was 100 μM).” for “concentration was 10 μM).”
as §4, §18, §19, §20, §5, §21, §22

[5] = molecular target: T1, Recombinant Human His6-USP1/His6-UAF1 Complex Protein; experiment: In-vitro enzymatic activity on USP1, second experimental method (60 min incubation); assay type: biochemical; details: incubation at room temperature 60 minutes, read-out: Inhibitory activities on USP-1, IC50
Method: as §6, §7, §8, §9, §10, §11, §12, §13
(§23) Second Experimental Method:
In the enzyme reaction experiment, the incubation time at room temperature in the step 4) was changed to 60 minutes, other conditions were the same as those in the first experimental method, and the following test results were obtained: […]

MDA-MB-436 cells [6] = experiment: Second in-vitro cytological inhibitory activity experiment, second method, MDA-MB-436; assay type: cell-based; details: Homo sapiens, Experimental Example 3 second method, 5 mM stock, 9 concentrations
Method: as §23
(§24) The concentrations of the compound stock solutions prepared were 5 mM.
(§25) The stock solutions of the test compounds were serially diluted from 5 mM with DMSO in a 3-fold gradient for a total of 9 concentrations.

Caov-3 cells [7] = experiment: Second in-vitro cytological inhibitory activity experiment, second method, Caov-3; assay type: cell-based; details: Homo sapiens, Experimental Example 3 second method, 5 mM stock, 9 concentrations
Method: as §23, §24, §25

T1 sequence (O94782 whole entry): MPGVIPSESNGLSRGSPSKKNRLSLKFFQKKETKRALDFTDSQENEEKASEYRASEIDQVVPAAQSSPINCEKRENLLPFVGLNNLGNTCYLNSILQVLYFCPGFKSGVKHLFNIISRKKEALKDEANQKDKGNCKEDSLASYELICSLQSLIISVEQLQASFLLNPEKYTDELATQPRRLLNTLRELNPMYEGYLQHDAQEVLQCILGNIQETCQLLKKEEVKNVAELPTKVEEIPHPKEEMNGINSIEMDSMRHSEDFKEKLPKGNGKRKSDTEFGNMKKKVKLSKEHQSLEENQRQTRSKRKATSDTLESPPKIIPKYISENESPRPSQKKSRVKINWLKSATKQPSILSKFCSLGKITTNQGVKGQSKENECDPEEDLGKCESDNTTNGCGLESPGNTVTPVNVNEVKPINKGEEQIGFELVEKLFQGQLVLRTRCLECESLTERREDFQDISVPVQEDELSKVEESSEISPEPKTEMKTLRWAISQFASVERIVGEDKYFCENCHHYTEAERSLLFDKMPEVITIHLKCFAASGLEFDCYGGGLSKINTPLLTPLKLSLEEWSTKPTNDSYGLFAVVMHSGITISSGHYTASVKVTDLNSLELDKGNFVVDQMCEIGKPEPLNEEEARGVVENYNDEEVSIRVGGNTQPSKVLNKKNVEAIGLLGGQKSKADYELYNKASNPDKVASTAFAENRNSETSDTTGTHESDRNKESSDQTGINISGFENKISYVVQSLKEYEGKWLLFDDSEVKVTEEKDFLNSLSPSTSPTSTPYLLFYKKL
T1 sequence (Q8TAF3 whole entry partner): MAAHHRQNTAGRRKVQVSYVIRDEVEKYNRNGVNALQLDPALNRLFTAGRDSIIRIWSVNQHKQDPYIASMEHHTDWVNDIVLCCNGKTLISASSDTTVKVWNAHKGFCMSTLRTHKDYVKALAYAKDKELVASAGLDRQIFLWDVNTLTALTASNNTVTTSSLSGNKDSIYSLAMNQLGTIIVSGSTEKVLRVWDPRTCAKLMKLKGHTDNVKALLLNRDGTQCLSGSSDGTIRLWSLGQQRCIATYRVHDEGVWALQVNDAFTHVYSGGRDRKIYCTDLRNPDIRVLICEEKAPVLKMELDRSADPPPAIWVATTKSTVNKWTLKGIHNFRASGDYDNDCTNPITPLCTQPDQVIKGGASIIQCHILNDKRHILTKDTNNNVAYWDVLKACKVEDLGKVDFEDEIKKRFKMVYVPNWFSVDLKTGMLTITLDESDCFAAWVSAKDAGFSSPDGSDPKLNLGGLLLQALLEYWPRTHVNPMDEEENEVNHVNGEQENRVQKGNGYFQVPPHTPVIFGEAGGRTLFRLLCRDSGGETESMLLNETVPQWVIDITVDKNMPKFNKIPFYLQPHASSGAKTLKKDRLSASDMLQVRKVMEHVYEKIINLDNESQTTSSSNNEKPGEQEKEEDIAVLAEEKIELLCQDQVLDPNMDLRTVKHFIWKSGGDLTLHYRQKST

Compound	IC50 (MDA-MB-436 cells [1]) [nM]	IC50 [2] [nM]	IC50 (MDA-MB-436 cells [3]) [nM]	IC50 (Caov-3 cells [4]) [nM]	IC50 [5] [nM]	IC50 (MDA-MB-436 cells [6]) [nM]	IC50 (Caov-3 cells [7]) [nM]
COc1ncnc(C2CC2)c1-c1nc2c3c(nn(Cc4ccc(-c5nc(C(F)(F)F)cn5C)cc4)c3n1)CCC2 [Compound 1, 4-(4-cyclopropyl-6-methoxypyrimidine-5-yl)-2-(4-(1-methyl-4-(trifluoromethyl)-1H-imidazol-2-yl)benzyl)-2,6,7,8-tetrahydropyrazolo[3,4,5-de]quinazoline]	68	28					
[2H]C([2H])([2H])Oc1ncnc(C2CC2)c1-c1nc2c3c(nn(Cc4ccc(-c5nc(C(F)(F)F)cn5C)cc4)c3n1)CCC2 [Compound 1-1, 4-(4-cyclopropyl-6-(methoxy-d3)pyrimidin-5-yl)-2-(4-(1-methyl-4-(trifluoromethyl)-1H-imidazol-2-yl)benzyl)-2,6,7,8-tetrahydropyrazolo[3,4,5-de]quinazoline]			42.4	1 to 600	12.9		
CC(C)c1c(F)cccc1-c1nc2c3c(nn(Cc4ccc(-c5nc(C(F)(F)F)cn5C)cc4)c3n1)CCC2 [Compound 2, 4-(3-fluoro-2-isopropylphenyl)-2-(4-(1-methyl-4-(trifluoromethyl)-1H-imidazol-2-yl)benzyl)-2,6,7,8-tetrahydropyrazolo[3,4,5-de]quinazoline]	88.1	5					
Cc1cc(C(F)(F)F)nn1-c1ccc(Cn2nc3c4c(nc(-c5cccc(F)c5C(C)C)nc42)CCC3)cc1 [Compound 3, 4-(3-fluoro-2-isopropylphenyl)-2-(4-(5-methyl-3-(trifluoromethyl)-1H-pyrazol-1-yl)benzyl)-2,6,7,8-tetrahydropyrazolo[3,4,5-de]quinazoline]		18					
[2H]C([2H])([2H])Oc1ncnc(C2CC2)c1-c1nc2c3c(nn(Cc4ccc(-c5nc(C(F)(F)F)cn5C)cc4)c3n1)CCCC2 [Compound 11-1, 4-(4-cyclopropyl-6-(methoxy-d3)pyrimidin-5-yl)-2-(4-(1-methyl-4-(trifluoromethyl)-1H-imidazol-2-yl)benzyl)-6,7,8,9-tetrahydro-2H-1,2,3,5-tetraazabenzo[cd]azulene]			122	1 to 600	15		
COc1ncnc(C2CC2)c1-c1nc2c3c(nn(Cc4ccc(-c5nc(C(F)(F)F)cn5C(C)C)cc4)c3n1)CCC2 [Compound 16, 4-(4-cyclopropyl-6-methoxypyrimidine-5-yl)-2-(4-(1-isopropyl-4-(trifluoromethyl)-1H-imidazol-2-yl)benzyl)-2,6,7,8-tetrahydropyrazolo[3,4,5-de]quinazoline]			42.3	1 to 600	8		
[2H]C([2H])([2H])Oc1ncnc(C2CC2)c1-c1nc2c3c(nn(Cc4ccc(-c5nc(C(F)(F)F)cn5C(C)C)cc4)c3n1)CCC2 [Compound 16-1, 4-(4-cyclopropyl-6-(methoxy-d3)pyrimidin-5-yl)-2-(4-(1-isopropyl-4-(trifluoromethyl)-1H-imidazol-2-yl)benzyl)-2,6,7,8-tetrahydropyrazolo[3,4,5-de]quinazoline]			55.3	1 to 600	6.67		
[2H]C([2H])([2H])Oc1ncnc(C2CC2)c1-c1nc2c3c(nn(Cc4ccc(-c5nc(C(F)(F)F)cn5C(C)C)cc4)c3n1)CCCC2 [Compound 17-1, 4-(4-cyclopropyl-6-(methoxy-d3)pyrimidin-5-yl)-2-(4-(1-isopropyl-4-(trifluoromethyl)-1H-imidazol-2-yl)benzyl)-6,7,8,9-tetrahydro-2H-1,2,3,5-tetraazabenzo[cd]azulene]			110	1 to 600	6.66		
Cc1cnn(C(C)C)c1-c1nc2c3c(nn(Cc4ccc(-c5nc(C(F)(F)F)cn5C)cc4)c3n1)CCC2 [Compound 18, 4-(1-isopropyl-4-methyl-1H-pyrazol-5-yl)-2-(4-(1-methyl-4-(trifluoromethyl)-1H-imidazol-2-yl)benzyl)-2,6,7,8-tetrahydropyrazolo[3,4,5-de]quinazoline]			29.7	1 to 600	3.98		
Cc1cnn(C(C)C)c1-c1nc2c3c(nn(Cc4ccc(-c5nc(C(F)(F)F)cn5C(C)C)cc4)c3n1)CCC2 [Compound 19, 2-(4-(1-isopropyl-4-(trifluoromethyl)-1H-imidazol-2-yl)benzyl)-4-(1-isopropyl-4-methyl-1H-pyrazol-5-yl)-2,6,7,8-tetrahydropyrazolo[3,4,5-de]quinazoline]			49.8	1 to 600	4.36		
Cn1cc(C(F)(F)F)nc1-c1ccc(Cn2nc3c4c(nc(-c5c(OC(F)F)ncnc5C5CC5)nc42)CCC3)cc1 [Compound 20, 4-(4-cyclopropyl-6-(difluoromethoxy)pyrimidin-5-yl)-2-(4-(1-methyl-4-(trifluoromethyl)-1H-imidazol-2-yl)benzyl)-2,6,7,8-tetrahydropyrazolo[3,4,5-de]quinazoline]						55.7	1 to 100
